US6750244B2, “Compounds active at a novel site on receptor-operated calcium channels useful for treatment of neurological disorders and diseases” (NPS Pharmaceuticals, Inc., priority 1993, dated 2004)
Several values for one entry are separate records, joined by “and”; a condition that tells them apart may be missing. Equal values may be shown once. Where a name gives a salt, the structure may show the parent alone. Read-outs that look alike come from different tables or passages of the source.

What was measured:
[1] = biological target: NMDA receptor-ionophore complex (site labeled by [3H]MK-801); assay: Inhibition of [3H]MK-801 binding in rat cortical/hippocampal washed membrane preparations; conditions: read-out: IC50 (μM) vs. [3H]MK-801, rat cortical/hippocampal washed membranes
in vivo = conditions: Frings, mouse, in vivo, ip
Experimental: (§1) In this assay, Frings and CF1 mice were injected with test compound and placed on a knurled rod which rotated at a speed of 6 rpm. The ability of the mice to maintain equilibrium for long periods of time was determined; those mice that were unable to maintain equilibrium on the rotorod for 1 min in each of 3 trials were considered impaired.

sound-induced seizures = assay: Sound-induced seizures in Frings mice (reflex epilepsy); format: in vivo; conditions: for ED50: Mus musculus, ip, Frings mice; for IC50, prevention of sound-induced seizures: intracerebroventricular (i.c.v.) injection
NMDA receptor = assay: Inhibition of NMDA/glycine-induced increases in intracellular calcium in cultured rat cerebellar granule cells (RCGC); format: cell-based; conditions: NMDA/glycine-induced increases in intracellular calcium, cultured rat cerebellar granule cells; read-out: IC50 (μM) vs. NMDA
motor performance = assay: Acute motor impairment (rotorod) in mice; conditions: Frings mice; for TD50, acute motor impairment: i.c.v. injection
Experimental: as §1

induction of LTP = system: induction of LTP; design: species or system rat; conditions: slices superfused 30-60 min
[2] = system: mean arterial blood pressure; conditions: for no effect on mean arterial blood pressure / no (significant) cardiovascular activity at doses up to: i.v.
dopamine uptake site = biological target: T1, dopamine uptake site (Cavia porcellus, UniProt H0WCX4); assay: Dopamine uptake binding assay: [3H]WIN-35,428 binding to guinea pig striatal membranes
T1 construct: from tissue; host or cells: guinea pig striatal membranes (per the assay title)

serotonin uptake site = biological target: T2, serotonin uptake site (Rattus norvegicus, UniProt P31652); assay: Serotonin uptake binding assay: [3H]citalopram binding to rat forebrain membranes
T2 construct: from tissue; host or cells: rat forebrain membranes (per the assay title)

[3] = biological target: T3, norepinephrine uptake site (Rattus norvegicus, UniProt Q63380); assay: Norepinephrine uptake binding assay: [3H]desipramine binding to rat cortical membranes
T3 construct: from tissue; host or cells: rat cortical membranes (per the assay title)

[4] = system: central muscarinic cholinergic receptor; format: binding, rat
behavior = assay: Behavioral effects in conscious male NMRI mice
L-type calcium channel = system: T4, L-type calcium channel; assay: Inhibition of KCl depolarization-induced increases in intracellular calcium in cultured rat cerebellar granule cells; format: cell-based; conditions: cultured rat cerebellar granule cells; read-out: L-type calcium channel: estimated IC50, KCl depolarization-induced increases in intracellular calcium
T4 construct: L-type calcium channel: estimated IC50, KCl depolarization-induced increases in intracellular calcium; other: cultured
Text: The ability of arylalkylamines to inhibit dihydropyridine-sensitive Ca^2+ channels was examined in cerebellar granule cells and a rat aortic smooth muscle cell line, A7r5 cells.

T1 sequence (H0WCX4 1-619): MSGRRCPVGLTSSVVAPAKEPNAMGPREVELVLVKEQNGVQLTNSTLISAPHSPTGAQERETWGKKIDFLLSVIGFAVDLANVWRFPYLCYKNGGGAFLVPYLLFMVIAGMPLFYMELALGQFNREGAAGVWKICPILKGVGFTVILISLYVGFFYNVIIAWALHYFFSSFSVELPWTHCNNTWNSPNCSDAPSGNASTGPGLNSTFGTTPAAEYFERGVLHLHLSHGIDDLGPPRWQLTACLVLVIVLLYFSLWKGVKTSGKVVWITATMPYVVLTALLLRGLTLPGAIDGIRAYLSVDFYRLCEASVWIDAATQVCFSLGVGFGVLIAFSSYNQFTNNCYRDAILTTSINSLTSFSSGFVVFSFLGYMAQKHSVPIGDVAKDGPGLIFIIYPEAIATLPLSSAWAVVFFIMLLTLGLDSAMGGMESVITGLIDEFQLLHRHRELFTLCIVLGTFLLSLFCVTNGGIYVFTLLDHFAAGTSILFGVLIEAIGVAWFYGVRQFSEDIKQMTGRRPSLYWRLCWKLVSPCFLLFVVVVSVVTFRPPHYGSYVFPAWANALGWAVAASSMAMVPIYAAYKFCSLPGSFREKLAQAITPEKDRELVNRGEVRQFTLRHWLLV
T3 sequence (Q63380 1-617): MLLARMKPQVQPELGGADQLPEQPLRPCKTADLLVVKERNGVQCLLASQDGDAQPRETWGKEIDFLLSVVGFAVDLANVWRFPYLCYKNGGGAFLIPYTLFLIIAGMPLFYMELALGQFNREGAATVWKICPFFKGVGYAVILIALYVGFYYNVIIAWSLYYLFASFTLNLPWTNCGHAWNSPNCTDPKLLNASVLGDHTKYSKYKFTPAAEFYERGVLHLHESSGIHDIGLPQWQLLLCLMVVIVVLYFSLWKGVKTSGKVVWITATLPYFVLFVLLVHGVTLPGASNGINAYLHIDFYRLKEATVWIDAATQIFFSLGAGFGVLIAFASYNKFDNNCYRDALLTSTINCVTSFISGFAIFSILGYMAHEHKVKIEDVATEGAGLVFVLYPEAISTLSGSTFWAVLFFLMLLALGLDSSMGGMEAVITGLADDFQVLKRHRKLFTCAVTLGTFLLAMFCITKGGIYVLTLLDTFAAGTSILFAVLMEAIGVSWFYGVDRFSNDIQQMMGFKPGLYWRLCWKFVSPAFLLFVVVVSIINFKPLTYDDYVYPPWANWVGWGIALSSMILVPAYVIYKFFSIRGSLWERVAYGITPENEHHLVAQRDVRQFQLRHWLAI
T2 sequence (P31652 whole entry): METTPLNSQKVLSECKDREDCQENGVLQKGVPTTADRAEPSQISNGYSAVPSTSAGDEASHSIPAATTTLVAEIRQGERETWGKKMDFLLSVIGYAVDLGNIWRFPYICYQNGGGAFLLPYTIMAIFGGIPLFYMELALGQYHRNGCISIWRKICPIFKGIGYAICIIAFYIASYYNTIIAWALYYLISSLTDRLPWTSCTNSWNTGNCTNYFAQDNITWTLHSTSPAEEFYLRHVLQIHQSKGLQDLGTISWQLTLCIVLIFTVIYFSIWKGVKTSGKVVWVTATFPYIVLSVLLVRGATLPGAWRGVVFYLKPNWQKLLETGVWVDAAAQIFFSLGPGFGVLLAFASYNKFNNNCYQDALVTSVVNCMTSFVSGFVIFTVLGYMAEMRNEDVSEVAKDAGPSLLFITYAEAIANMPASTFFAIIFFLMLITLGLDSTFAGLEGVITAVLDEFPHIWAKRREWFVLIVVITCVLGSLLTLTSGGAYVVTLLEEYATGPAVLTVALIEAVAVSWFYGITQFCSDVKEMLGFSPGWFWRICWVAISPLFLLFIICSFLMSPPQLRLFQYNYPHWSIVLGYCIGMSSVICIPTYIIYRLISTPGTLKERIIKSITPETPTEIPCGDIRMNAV

SMILES | IC50 [1] | IC50 (NMDA receptor) [µM] | other results
Cc1ccc(F)cc1C(CCN)c1cccc(F)c1 (stereo not shown) [Compound 57, 3-(3-fluorophenyl)-3-(3-fluoro-6-methylphenyl)-1-propylamine] | 0.063 µM | 0.028 | TD50 (in vivo): 6 to 8 mg/kg; ED50 (sound-induced seizures): 1 mg/kg
NCCCOCCCCOCCCNC(=O)Cc1cccc2ccccc12 [Compound 14] | – | 8.8 | TD50, acute motor impairment (motor performance): 30.8 µg; IC50, prevention of sound-induced seizures (sound-induced seizures): 13.9 µg
CC(C(O)c1ccc(O)cc1)N1CCC(Cc2ccccc2)CC1 (stereo not shown) [ifenprodil, reference compound] | – | – | induction of LTP (p<0.05) (induction of LTP): significantly blocked
NCCC1c2ccccc2CCc2ccccc21 [Compound 156, 5-(2-Aminoethyl)-5H-10,11-dihydrodibenzo[a,d]cycloheptene hydrochloride] | – | 0.069 | IC50 ([1]; hydrochloride): 0.09 µM and 0.081 µM; TD50 (in vivo): 17.4 mg/kg; ED50 (sound-induced seizures): 5 mg/kg
CC(CN)C(c1cccc(F)c1)c1cccc(F)c1 (stereo not shown) [Compound 21, 3,3-bis(3-fluorophenyl)-2-methyl-1-propylamine] | 0.457 µM | 0.038 | TD50 (in vivo): 15.3 mg/kg; ED50 (sound-induced seizures): 3.41 mg/kg
NCCC(c1cccc(Cl)c1)c1cccc(Cl)c1 [Compound 31, 3,3-bis(3-chlorophenyl)-1-propylamine] | 1.3 µM | 0.052 | TD50 (in vivo): 10 to 20 mg/kg; ED50 (sound-induced seizures): 6 mg/kg
NC(CCCCCP(=O)(O)O)C(=O)O (stereo not shown) [AP7, reference compound] | – | – | induction of LTP (p<0.05) (induction of LTP): significantly blocked
NC(CCCP(=O)(O)O)C(=O)O (stereo not shown) [AP5, reference compound] | – | 15 | induction of LTP (p<0.05) (induction of LTP): significantly blocked
CCNCCCNCCCNCCCNC(=O)Cc1c[nH]c2ccc(F)cc12 [Compound 11] | – | 4 | Drop in Mean Arterial Blood Pressure ([2]; 1 mg/kg i.v., rats): 20 mm Hg at 1; Drop in Mean Arterial Blood Pressure: duration ([2]; 1 mg/kg i.v., rats): mg/kg i.v., 30 min; duration of the hypotensive effect ([2]; systemic administration in rats): approximately 30 min
N[C@@H]1CCCC1C(c1cccc(F)c1)c1cccc(F)c1 (stereo partly shown) [Compound 64] | 0.851 µM | 0.309 | Monoamine uptake binding assays: dopamine uptake binding assay, percent block (dopamine uptake site; at 0.1 μM): 50% at; Monoamine uptake binding assays: dopamine uptake binding assay, percent block (dopamine uptake site; at 10 μM): 0.1^f99% at; Monoamine uptake binding assays: serotonin uptake binding assay, percent block (serotonin uptake site; at 0.1 μM): 10^g29% at; Monoamine uptake binding assays: serotonin uptake binding assay, percent block (serotonin uptake site; at 10 μM): 0.1^h68% at; Monoamine uptake binding assays: norepinephrine uptake binding assay, percent block ([3]; at 0.1 μM): 8% at; Monoamine uptake binding assays: norepinephrine uptake binding assay, percent block ([3]; at 10 μM): 0.1^g65% at; Central muscarinic cholinergic receptor: percent block of [3H]QNB binding ([4]; at 0.1 μM): 11% at; Central muscarinic cholinergic receptor: percent block of [3H]QNB binding ([4]; at 10 μM): 0.183% at
C[C@H](CN)C(c1cccc(F)c1)c1cccc(F)c1 [Compound 34, 3,3-bis(3-fluorophenyl)-2-methyl-1-propylamine] | 2.7 µM | 0.426 | TD50 (in vivo): 10 to 15 mg/kg; ED50 (sound-induced seizures): 22 mg/kg; Monoamine uptake binding assays: dopamine uptake binding assay, percent block (dopamine uptake site; at 0.1 μM): 60% at; Monoamine uptake binding assays: dopamine uptake binding assay, percent block (dopamine uptake site; at 10 μM): 0.1^f99% at; Monoamine uptake binding assays: serotonin uptake binding assay, percent block (serotonin uptake site; at 0.1 μM): 10^g12% at; Monoamine uptake binding assays: serotonin uptake binding assay, percent block (serotonin uptake site; at 10 μM): 0.1^h79% at; Monoamine uptake binding assays: norepinephrine uptake binding assay, percent block ([3]; at 0.1 μM): 10^f10% at; Monoamine uptake binding assays: norepinephrine uptake binding assay, percent block ([3]; at 10 μM): 0.1^g64% at; behavioral effects (behavior; 2 mg/kg i.p.): hyperthermia; behavioral effects (behavior; 4 mg/kg i.p.): no behavioral effects; behavioral effects (behavior; 8 mg/kg i.p.): excitation, increased reactivity to touch, and hypothermia; behavioral effects (behavior; 64 mg/kg i.p.): convulsions; behavioral effects (behavior; 16 and 32 mg/kg i.p.): excitation, Straub tail, tremor, jumping, stereotypies, hypothermia, and mydriasis; behavioral effects (behavior; 128 and 256 mg/kg i.p.): convulsions and death; Central muscarinic cholinergic receptor: percent block of [3H]QNB binding ([4]; at 0.1 μM): 25% at; Central muscarinic cholinergic receptor: percent block of [3H]QNB binding ([4]; at 10 μM): 0.199% at
COc1ccccc1C(CCN)c1ccccc1 (stereo not shown) [Compound 97, 3-(2-methoxyphenyl)-3-phenyl-1-propylamine] | 2.6 µM | 0.41 | –
CNCC=C(c1cccc(F)c1)c1cccc(F)c1 [Compound 106] | 1.31 µM | 0.767 | –
NCCC(Oc1ccccc1F)c1cccc(F)c1 (stereo not shown) [Compound 122] | 0.342 µM | 0.209 | TD50 (in vivo): 15.3 mg/kg; ED50 (sound-induced seizures): 4.7 mg/kg
CC(N)CC(c1cccc(Cl)c1)c1cccc(Cl)c1 (stereo not shown) [Compound 43] | 7.5 µM | 0.232 | –
NCCC(Oc1cccc(F)c1)c1cccc(F)c1 (stereo not shown) [Compound 119] | 0.087 µM | 0.115 | TD50 (in vivo): 26.3 mg/kg; ED50 (sound-induced seizures): 7 mg/kg
OC1(C(c2cccc(F)c2)c2cccc(F)c2)CCNC1 (stereo not shown) [Compound 84] | 23.4 µM | 7.9 | –
N[C@H]1CCCC1C(c1cccc(F)c1)c1cccc(F)c1 (stereo partly shown) [Compound 63] | 0.245 µM | 0.093 | Monoamine uptake binding assays: dopamine uptake binding assay, percent block (dopamine uptake site; at 0.1 μM): 64% at; Monoamine uptake binding assays: dopamine uptake binding assay, percent block (dopamine uptake site; at 10 μM): 0.1^f98% at; Monoamine uptake binding assays: serotonin uptake binding assay, percent block (serotonin uptake site; at 0.1 μM): 10^g13% at; Monoamine uptake binding assays: serotonin uptake binding assay, percent block (serotonin uptake site; at 10 μM): 0.1^h85% at; Monoamine uptake binding assays: norepinephrine uptake binding assay, percent block ([3]; at 0.1 μM): 10^f7% at; Monoamine uptake binding assays: norepinephrine uptake binding assay, percent block ([3]; at 10 μM): 0.1^g76% at; IC50 (L-type calcium channel): 1900 nM; Central muscarinic cholinergic receptor: percent block of [3H]QNB binding ([4]; at 0.1 μM): 11% at; Central muscarinic cholinergic receptor: percent block of [3H]QNB binding ([4]; at 10 μM): 0.181% at
CCC(NCCC(c1ccccc1)c1ccccc1)c1ccccc1F (stereo not shown) [Compound 163] | 10.3 µM | 0.326 | –

SMILES | IC50 [1] | IC50 (NMDA receptor) [µM] | other results
CCC(NCCC(c1ccccc1)c1ccccc1)c1cccc(Cl)c1 (stereo not shown) [Compound 159] | 10.4 µM | 0.185 | –
CCC(NCCC(c1cccc(F)c1)c1cccc(F)c1)c1ccccc1 (stereo not shown) [Compound 94] | 22.6 µM | 0.248 | –
C[C@H](N)[C@H](C)C(c1ccccc1)c1ccccc1 [Compound 87] | 3 µM | 0.657 | –
NCCC(c1cccc(F)c1)c1cccc(Cl)c1 (stereo not shown) [Compound 30, 3-(3-fluorophenyl)-3-(3-chlorophenyl)-1-propylamine] | 0.407 µM | 0.035 | –
NCCCOCCCCOCCCNC(=O)Cc1c[nH]c2ccc(F)cc12 [Compound 12] | 98 µM | 6 | TD50, acute motor impairment (motor performance): 30.2 µg; IC50, prevention of sound-induced seizures (sound-induced seizures): 12.2 µg; no effect on mean arterial blood pressure / no (significant) cardiovascular activity at doses up to ([2]; rats): ≤ 37.3 µmol/kg; no effect on mean arterial blood pressure / no (significant) cardiovascular activity at doses up to ([2]; rats, listed as Compounds 12): up to 37.3 μmoles/kg
C[C@@H](N)CC(c1cccc(F)c1)c1cccc(F)c1 [Compound 51, 3,3-bis(3-fluorophenyl)-1-methyl-1-propylamine] | 4.5 µM | 1.1 | TD50 (motor impairment) (motor performance; i.p.): 13.6 mg/kg; ED50 (sound-induced seizures): 9.1 mg/kg
NCCC(Oc1cccc(Cl)c1)c1cccc(F)c1 (stereo not shown) [Compound 120] | 0.074 µM | 0.101 | TD50 (in vivo): 20 to 30 mg/kg; ED50 (sound-induced seizures): 4.77 mg/kg
CNCCC(Oc1cccc(F)c1)c1cccc(F)c1 (stereo not shown) [Compound 145] | 0.626 µM | 0.098 | –
NCC(Cc1ccccc1)c1ccccc1 (stereo not shown) [Compound 133] | 3 µM | 0.76 | –
Cc1cccc(C(CCN)c2cccc(F)c2)c1 (stereo not shown) [Compound 28, 3-(3-fluorophenyl)-3-(3-methylphenyl)-1-propylamine] | 2.3 µM | 0.38 | –
NCCC(c1cccc(F)c1)c1cc(F)cc(F)c1 (stereo not shown) [Compound 96, 3-(3,5-difluorophenyl)-3-(3-fluorophenyl)-1-propylamine] | 1.1 µM | 0.187 | –
NCCC(c1cccc(F)c1)c1ccccc1O (stereo not shown) [Compound 103, 3-(2-hydroxyphenyl)-3-(3-fluorophenyl)-1-propylamine] | 0.661 µM | 0.38 | –
CC(N)C(C)C(c1cccc(F)c1)c1cccc(F)c1 (stereo not shown) [Compound 38, 3,3-bis(3-fluorophenyl)-1,2-dimethyl-1-propylamine] | 2.3 µM | 0.407 | –
NCCC(c1ccsc1)c1cccc(F)c1 (stereo not shown) [Compound 90] | 1.4 µM | 0.27 | –
COc1ccccc1CC(=O)NC(CC(C)C)C(=O)NCCCCCNCCCNCCCNC(=O)C(N)CCCNC(=N)N (stereo not shown) [Compound 7] | 129 µM | 0.163 | –
CCC(NCCC(c1ccccc1)c1ccccc1)c1ccc(C)cc1 (stereo not shown) [Compound 169] | 26.7 µM | 0.298 | –
NCCC(c1cccc(F)c1)c1cccs1 (stereo not shown) [Compound 83] | 0.794 µM | 0.342 | –
NCCC1c2ccccc2C=Cc2ccccc21 [Compound 184] | 1.51 µM and 1.65 µM | 1.5 | –
COc1cccc(C(CCN)c2cccc(Cl)c2)c1 (stereo not shown) [Compound 136] | 0.706 µM | 0.139 | –
